{"source": "paper PMC9020721", "about": "“Characterization of BLUF-photoreceptors present in Acinetobacter nosocomialis” (PLoS ONE, 2022)", "key": {"[1]": {"target": "T1, AnBLUF46 (Acinetobacter nosocomialis, UniProt A0AA36NWK2)", "T1 construct": "gene ANICBIBUN_11750; full length, 147 residues, N-terminal His-tag, pET28-TEV, E. coli BL21 (pLysS), Ni-NTA; tag cleavage not mentioned", "T1 sequence (A0AA36NWK2 1-147)": "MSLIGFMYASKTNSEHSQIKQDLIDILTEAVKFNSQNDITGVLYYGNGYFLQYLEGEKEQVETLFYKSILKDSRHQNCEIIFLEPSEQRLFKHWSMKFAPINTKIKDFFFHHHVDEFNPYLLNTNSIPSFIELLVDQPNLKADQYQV", "test": "UV-vis absorption and fluorescence emission of the co-purified flavin", "format": "binding", "details": "20 mM Tris-HCl, 200 mM NaCl, pH 8.0, 15 °C; flavin as purified with the protein, fully oxidized; flavin identity assigned by the authors, no separate analysis"}, "[2]": {"target": "T2, AnBLUF65 (Acinetobacter nosocomialis, UniProt A0AA36P071)", "T2 construct": "gene ANICBIBUN_09924; full length, 156 residues, N-terminal His-tag, synthetic gene in pET28a(+), E. coli BL21 (pLysS), Ni-NTA", "T2 sequence (A0AA36P071 1-156)": "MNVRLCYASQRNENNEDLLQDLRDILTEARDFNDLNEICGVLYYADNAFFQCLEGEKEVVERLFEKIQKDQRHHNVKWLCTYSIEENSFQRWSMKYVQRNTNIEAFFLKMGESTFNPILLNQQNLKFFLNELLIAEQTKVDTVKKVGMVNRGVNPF", "test": "UV-vis absorption and fluorescence emission of the co-purified flavin", "format": "binding", "details": "20 mM Tris-HCl, 200 mM NaCl, pH 8.0, 15 °C; flavin as purified with the protein, fully oxidized; flavin identity assigned by the authors, no separate analysis"}}, "data": [{"smiles": "Cc1cc2nc3c(=O)[nH]c(=O)nc-3n(C[C@H](O)[C@H](O)[C@H](O)COP(=O)(O)OP(=O)(O)OC[C@H]3O[C@@H](n4cnc5c(N)ncnc54)[C@H](O)[C@@H]3O)c2cc1C", "note": "[FAD]", "values": [{"measurement": "UV-vis absorption and fluorescence emission of the co-purified flavin", "setting": "[1]", "result": "blue-shifted compared with free FAD in the same working buffer"}, {"measurement": "UV-vis absorption and fluorescence emission of the co-purified flavin", "setting": "[2]", "result": "blue-shifted compared with free FAD in the same working buffer"}]}]}
